For data set [1], the target named is T1, JAK3 enzyme (Homo sapiens, UniProt P52333).
T1 sequence (P52333 1-1124): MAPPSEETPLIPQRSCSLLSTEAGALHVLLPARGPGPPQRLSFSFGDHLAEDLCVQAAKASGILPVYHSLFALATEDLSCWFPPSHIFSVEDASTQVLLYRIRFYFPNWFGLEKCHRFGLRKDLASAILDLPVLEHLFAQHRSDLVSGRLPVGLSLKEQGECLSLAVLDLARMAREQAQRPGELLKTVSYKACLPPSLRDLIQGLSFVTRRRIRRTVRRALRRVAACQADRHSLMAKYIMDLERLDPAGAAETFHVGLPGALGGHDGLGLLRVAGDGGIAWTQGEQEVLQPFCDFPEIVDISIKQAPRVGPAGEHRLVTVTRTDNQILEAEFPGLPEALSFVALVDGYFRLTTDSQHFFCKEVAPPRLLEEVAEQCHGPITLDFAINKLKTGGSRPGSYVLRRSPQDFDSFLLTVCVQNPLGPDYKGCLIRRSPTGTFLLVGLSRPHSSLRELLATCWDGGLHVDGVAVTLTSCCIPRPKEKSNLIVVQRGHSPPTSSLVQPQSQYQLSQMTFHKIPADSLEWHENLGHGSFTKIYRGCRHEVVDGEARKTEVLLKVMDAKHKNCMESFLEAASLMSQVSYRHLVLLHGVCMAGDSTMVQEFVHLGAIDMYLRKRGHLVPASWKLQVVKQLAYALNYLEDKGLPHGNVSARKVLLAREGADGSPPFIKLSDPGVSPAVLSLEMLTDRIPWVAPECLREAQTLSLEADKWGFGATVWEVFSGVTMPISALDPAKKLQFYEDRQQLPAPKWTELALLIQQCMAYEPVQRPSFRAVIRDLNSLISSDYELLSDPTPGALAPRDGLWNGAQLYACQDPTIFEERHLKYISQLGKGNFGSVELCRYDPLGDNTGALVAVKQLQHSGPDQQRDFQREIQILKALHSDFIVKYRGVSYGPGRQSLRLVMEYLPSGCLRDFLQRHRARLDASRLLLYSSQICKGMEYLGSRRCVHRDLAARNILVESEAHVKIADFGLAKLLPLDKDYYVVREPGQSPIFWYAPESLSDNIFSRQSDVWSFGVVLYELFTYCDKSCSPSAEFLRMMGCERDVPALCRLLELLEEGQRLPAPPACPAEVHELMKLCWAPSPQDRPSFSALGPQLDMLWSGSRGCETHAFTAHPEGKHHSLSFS
Briefly: JAK Caliper Enzyme Assay at 1 mM ATP. Format: biochemical. Summed up:
(§1)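 Compound tested as 11-point half-log DMSO dilution series (top 600 μM in DMSO, a dilution-plate level). Enzyme level and time set for 20%-30% peptide phosphorylation; phosphorylated and unphosphorylated peptide separated and quantified by Caliper LC3000 mobility shift.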

The subject of data set [2] is IL-15 induced P-STAT5 in human PBMC. Briefly: PBMC IL-15 Induced P-STAT5. Format: cell-based. Summed up: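 Thawed human PBMC, rested in human plasma, were preincubated 15 min at 37 °C with compound (0.2% DMSO), then stimulated 15 min with IL-15 at 41 ng/mL final. After paraformaldehyde fixation and methanol permeabilisation, Alexa Fluor 647 anti-STAT5 staining overnight at 4 °C was analysed by flow cytometry on total lymphocytes.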

The subject of data set [3] is IL-15 induced STAT5 phosphorylation in human whole blood lymphocytes. Briefly: HWB IL-15 Induced STAT5 Phosphorylation Assay. It is filed as cell-based. As to conditions: Lymphocyte, IL-15 final 50 ng/ml, read-out: HWB_IL15 pSTAT5 IC50. As to the method:
HWB IL-15 Induced STAT5 Phosphorylation Assay
After serial dilution of the test compounds 1:2 in DMSO at desired concentration (500× of final), the compounds were further diluted in PBS (by adding 4 μL compound/DMSO in 96 μL PBS, [DMSO]=4%, 20× final). To 96-well polypropylene plates were added 90 μl HWB (heparin treated Human Whole Blood)/well, followed by 5 μl/well 4% DMSO in D-PBS or various concentrations of 20× inhibitor in 4% DMSO in D-PBS (w/o Ca^+2 or Mg^+2) to give 1× in 0.2% DMSO. After mixing and incubating for 45 minutes at 37° C., 5 μl D-PBS (unstimulated control) or 20× stocks of 5 μl human IL-15 (final concentration is 50 ng/ml) were added, and mixed three times. After incubating 15 minutes at 37° C., 1× Lyse/Fix Buffer (BD Phosflow 5× Lyse/Fix Buffer) was added to all wells at 1000 μl/well, then incubated for 20 minutes at 37° C. and spun 5 mins at 1200 rpm. After washing in 1000 μl FACS buffer 1× and spinning for 5 mins at 1200 rpm, 400 μl ice cold Perm Buffer III were added to each well. After mixing gently (1-2×) and incubating on ice for 30 minutes, spinning for 5 mins at 1200 rpm without interruption, and washing 1× in cold […] FACS buffer (D-PBS containing 0.1% BSA and 0.1% sodium azide) 250 μl/well of the desired AlexaFluor647-conjugated anti-phospho STATS antibody at 1:125 dilution in FACS buffer was added. Following incubating at 4° C. over night, all the samples were transferred to 96-well polypropylene U-bottom plate, and checked by flow cytometry gated on total lymphocytes.

The target of data set [4] is T1, JAK3 enzyme. The data set can be described thus: JAK Caliper Enzyme Assay at 4 μM ATP. Format: biochemical. The gist of the method: as §1
Data set [5] is described as follows: Stability of JAK3 Covalent Inhibitors in Human Whole Blood. Format: in vitro ADME. As to conditions: 1 μM test compound, 37° C., 180 min incubation; for half-life at 1 μM: both sexes, read-out: Human blood stability t1/2. Summed up:
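Compound at 1 μM final incubated in duplicate at 37° C for 180 min in fresh K2-EDTA whole blood […]. Samples quenched in acetonitrile with internal standard; LC-MS/MS peak area ratios gave % parent remaining over time.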

[6] abbreviates: human PBMC, IL-15 final 41 ng/mL, read-out: PBMC IL15_pSTAT5_IC50.
Setting [7] is: Homo sapiens, PBMC, read-out: PBMC IL15_pSTAT5_IC50 (nM).

Read-outs that look alike come from different tables or passages of the source. Where only a bound is given, the exact number is not on record here.

With `C=CC(=O)N1CCC(Oc2cnc3[nH]cc(C(=O)NCCOC)c3n2)CC1` [Example 211, 2-[(1-acryloylpiperidin-4-yl)oxy]-N-(2-methoxyethyl)-5H-pyrrolo[2,3-b]pyrazine-7-carboxamide], the IC50 at JAK3 enzyme [1] turned out to be 0.074 µM; in data set [2] (setting [6]) it was 395 nM; in data set [3], 1.74 µM; on JAK3 enzyme [4], 0.0005 µM.

As to `C=CC(=O)N1CCC(Nc2cnc3[nH]cc(C(=O)NCC4CCC4)c3n2)CC1` [Example 193, 2-[(1-acryloylpiperidin-4-yl)amino]-N-(cyclobutylmethyl)-5H-pyrrolo[2,3-b]pyrazine-7-carboxamide], the IC50 at JAK3 enzyme [1] turned out to be 0.005 µM; in data set [2] (setting [6]) it was 68.4 nM; in data set [3], 0.637 µM; on JAK3 enzyme [4] it was 0.000393 µM.

For the compound `C=CC(=O)N1CC[C@@H](Nc2cnc3[nH]cc(C(=O)NCC(F)(F)F)c3n2)[C@@H](OC)C1` [Example 317, 2-{[(3S,4R)-1-acryloyl-3-methoxypiperidin-4-yl]amino}-N-(2,2,2-trifluoroethyl)-5H-pyrrolo[2,3-b]pyrazine-7-carboxamide], the IC50 against JAK3 enzyme [1] is 0.077 µM; in data set [2] (setting [6]) it was 315 nM; in data set [3], 0.835 µM; on JAK3 enzyme [4] it was 0.000979 µM.

For the compound `C=CC(=O)N1CCN(c2cnc3[nH]cc(C(=O)N[C@@H]4COC[C@@H]4C4CC4)c3n2)CC1(C)C` [Example 139, 2-(4-acryloyl-3,3-dimethylpiperazin-1-yl)-N-[(3S,4R)-4-cyclopropyltetrahydrofuran-3-yl]-5H-pyrrolo[2,3-b]pyrazine-7-carboxamide], the half-life at 1 μM in data set [5] was greater than 6 h. The IC50 at JAK3 enzyme [1] is 0.109 µM; in data set [2] (setting [6]) it was 711 nM; on JAK3 enzyme [4], 0.00157 µM.

Turning to `C=CC(=O)N1CC[C@@H](Oc2cnc3[nH]cc(C(=O)NCC)c3n2)C1` [Example 87, (R)-2-[(1-acryloylpyrrolidin-3-yl)oxy]-N-ethyl-5H-pyrrolo[2,3-b]pyrazine-7-carboxamide], the half-life at 1 μM in data set [5] is greater than 6 h. For the same compound, the IC50 came to 1.32 µM at JAK3 enzyme [1], 6490 nM in data set [2] (setting [6]) and 0.014 µM against JAK3 enzyme [4].

With `C=CC(=O)N1CCCC(Oc2cnc3[nH]cc(C(=O)N[C@@H](C)COC)c3n2)C1` (mixture of isomers) [Example 51, Racemic-2-[(1-acryloylpiperidin-3-yl)oxy]-N-[(2S)-1-methoxypropan-2-yl]-5H-pyrrolo[2,3-b]pyrazine-7-carboxamide], in data set [5], the half-life at 1 μM is 2.65 h. Besides, the IC50 against JAK3 enzyme [1] worked out at 0.212 µM; in data set [2] (setting [6]) it was 999 nM; at JAK3 enzyme [4], 0.00293 µM.

Take `C=CC(=O)N1CC[C@H](Nc2cnc3[nH]cc(C(=O)N[C@@H](C)COC)c3n2)C[C@@H]1C` (relative stereo) [Example 55, 2-{[(2S,4S)-1-acryloyl-2-methylpiperidin-4-yl]amino}-N-[(2S)-1-methoxypropan-2-yl]-5H-pyrrolo[2,3-b]pyrazine-7-carboxamide]: the half-life at 1 μM in data set [5] is greater than 6 h. Moreover, the IC50 is 0.192 µM against JAK3 enzyme [1], 2260 nM in data set [2] (setting [7]) and 0.00221 µM on JAK3 enzyme [4].

As to `C=CC(=O)N1CC[C@H](Nc2cnc3[nH]cc(C(=O)NCC)c3n2)[C@@H](O)C1` (racemic) [Example 31, Trans-racemic-2-{[(3S,4S)-1-acryloyl-3-hydroxypiperidin-4-yl]amino}-N-ethyl-5H-pyrrolo[2,3-b]pyrazine-7-carboxamide], in data set [5], the half-life at 1 μM was 4.9 h. Further, the IC50 amounted to 0.047 µM at JAK3 enzyme [1], 3870 nM in data set [2] (setting [6]) and 0.000211 µM on JAK3 enzyme [4].

Take `C=CC(=O)N1CCC[C@H]1COc1cnc2[nH]cc(C(=O)N[C@@H](C)COC)c2n1` (single isomer, unassigned) [Example 8]: the half-life at 1 μM in data set [5] was greater than 6 h. For the same compound, the IC50 at JAK3 enzyme [1] came out at 0.046 µM; in data set [2] (setting [6]) it was 133 nM; on JAK3 enzyme [4] it was 0.000355 µM.

As for `C=CC(=O)N1CC[C@H](Nc2cnc3[nH]cc(C(=O)NCC)c3n2)[C@@H](O)C1` (single isomer, unassigned) [Example 32], in data set [5], the half-life at 1 μM is greater than 6 h. Further, the IC50 at JAK3 enzyme [1] worked out at 0.138 µM; in data set [2] (setting [6]), 9100 nM; on JAK3 enzyme [4] it was 0.000848 µM.

Turning to `C=CC(=O)N1C[C@@H](COCCC#N)C[C@@H](Nc2ncnc3[nH]ccc23)C1` (single isomer, unassigned) [Example 100], the “Human blood stability t1/2” value in data set [5] amounted to 3.52 h. Besides, the figures for the IC50 (at JAK3 enzyme [1]; in data set [2] (setting [6]); at JAK3 enzyme [4]) were 2.66 µM, greater than 10000 nM and 0.0763 µM, respectively.

Turning to `C=CC(=O)N1CCC(Oc2cnc3[nH]cc(-c4ncnn4C(C)C)c3n2)CC1` [Example 123], in data set [5], the half-life at 1 μM was 2.45 h. Moreover, the values for the IC50 (on JAK3 enzyme [1]; in data set [2] (setting [6]); at JAK3 enzyme [4]) were 1.1 µM, 3040 nM and 0.00765 µM, respectively.

Turning to `C=CC(=O)N1CCN(c2cnc3[nH]cc(C(=O)NC(C)COC)c3n2)CC1(C)C` (racemic) [Example 148, Racemic-2-(4-acryloyl-3,3-dimethylpiperazin-1-yl)-N-(1-methoxypropan-2-yl)-5H-pyrrolo[2,3-b]pyrazine-7-carboxamide], the half-life at 1 μM in data set [5] is greater than 6 h. The IC50 at JAK3 enzyme [1] stood at 0.111 µM; in data set [2] (setting [6]) it was 312 nM; on JAK3 enzyme [4], 0.000773 µM.

Turning to `C=CC(=O)N1CC[C@H](Nc2cnc3[nH]cc(C(=O)NCCC(F)(F)F)c3n2)C1` [Example 235, 2-{[(3S)-1-acryloylpyrrolidin-3-yl]amino}-N-(3,3,3-trifluoropropyl)-5H-pyrrolo[2,3-b]pyrazine-7-carboxamide], the half-life at 1 μM in data set [5] was 5.78 h. In addition, the IC50 stood at 0.037 µM against JAK3 enzyme [1], 208 nM in data set [2] (setting [6]) and 0.000304 µM against JAK3 enzyme [4].

As to `C=CC(=O)N1CC[C@H](Nc2cnc3[nH]cc(C(=O)NCC)c3n2)[C@@H](C)C1` (single isomer, unassigned) [Example 45], the half-life at 1 μM in data set [5] worked out at 3.37 h. For the same compound, the IC50 on JAK3 enzyme [1] is 0.057 µM; in data set [2] (setting [6]) it was 460 nM; against JAK3 enzyme [4], 0.00039 µM.

Regarding `C=CC(=O)N1CC[C@@H](Nc2cnc3[nH]cc(C(=O)N[C@H](C)COC)c3n2)C[C@H]1C` (single isomer, unassigned) [Example 58], the half-life at 1 μM in data set [5] is greater than 6 h. Besides, the IC50 against JAK3 enzyme [1] stood at 0.282 µM; in data set [2] (setting [7]) it was 4740 nM; against JAK3 enzyme [4] it was 0.00277 µM.

The values are drawn from patent US10703756B2, “Pyrrolo[2,3-D]pyrimidinyl, pyrrolo[2,3-B]pyrazinyl, pyrrolo[2,3-B]pyridinyl acrylamides and epoxides thereof” (Pfizer Inc., priority 2015, dated 2020).
